Experimental data from patent publication US10300144B2, “N-terminal polysialylation” (Lipoxen Technologies Limited, priority 2006, dated 2019).

Assays:
[1] = tested on: blood glucose; assay: In vivo efficacy of insulin formulations (blood glucose after subcutaneous injection); set-up: species or system mice; settings: for T-Test probability level of the difference against the Tris buffer, in vivo efficiency: mice
Method: The in vivo efficacy of insulin formulations was studied in female mice CD-1, 7-8 weeks old, 0.3 IU of protein dose (same activity) was injected in mice subcutaneously. Animals were divided into seven groups of four. insulin formulations were given to each animal of each group in the following manner; insulin (0.3 IU/mouse), Lantus (Aventis) insulin-PSA conjugate (14 KDa), PBS, one drop of blood was taken from each animal and was measured blood glucose by ACCU-CHEK Active (Roche Diagnostics).

[2] = Colominic acid (CAO) stability at different pH; assay type: physicochemical
Method: Colominic acid samples (CA and CAO) were dissolved in NaNO3 (0.2M), CH3CN (10%; 5 mg/ml) and were chromatographed on over 2× GMPWXL columns with detection by refractive index (GPC system: VE1121 GPC solvent pump, VE3580 RI detector and collation with Trisec 3 software (Viscotek Europe Ltd). Samples (5 mg/ml) were filtered over 0.45 μm nylon membrane and run at […] with 0.2M NaNO3 and CH3CN (10%) as the mobile phase.
The rules for chemistry of the PEGylation cannot be applied to polysialylation as such because of the difference in the physiochemical properties of these molecules. PSA is an acid labile polymer and is stable for weeks around neutral pH (FIG. 3). […] Polysialic acid is highly hydrophilic whereas PEG is an ampiphilic molecule in nature. When the polysialylation is carried out using conditions used for PEGylation, aggregation and precipitation of the proteins is seen in many cases.

[3] = tested on: blood sugar levels; settings: rabbits, calculated on a molar basis; cited from earlier work
[4] = cyanuric chloride activated PEG (2000 Da) conjugates; cited from earlier work
[5] = Isoelectric focusing (IEF) gel; assay type: physicochemical; settings: IEF gel pH 3-10
Method: Novex® IEF gel was used to determine differences in insulin and CAO-insulin conjugate isoelectric points. Samples was dissolved to a concentration of 0.5 mg/ml. 5 ul sample was diluted with 5 ul Novex IEF Sample Buffer pH 3-10 and then loaded the protein sample on the gel.

[6] = tested on: liver enzymes; settings: cited from earlier work

Substance: 32 kDa CAO-insulin: conjugate of insulin with 32 kDa oxidised colominic acid
- T-Test probability level of the difference against the Tris buffer, in vivo efficiency ([1]; time 32.0 minutes): *** (*** P < 0.001)
- T-Test probability level of the difference against the Tris buffer, in vivo efficiency ([1]; time 64.5 minutes): *** (*** P < 0.001)
- T-Test probability level of the difference against the Tris buffer, in vivo efficiency ([1]; time 99.4 minutes): *** (*** P < 0.001)
- T-Test probability level of the difference against the Tris buffer, in vivo efficiency ([1]; time 1354.9 minutes): * (* P < 0.05)

Substance: oxidised colominic acid [CAO]
- slow degradation, % of initial MW ([2]; pH 4.0, after 48 hours): 70 % of initial MW
- slow degradation, % of initial MW ([2]; pH 5.0, after 48 hours): 92 % of initial MW
- stability of CAO ([2]; pH 6.0): stable for 8 days
- stability of CAO ([2]; pH 7.4): stable for 8 days

Substance: 15 KDa CAO-insulin (Sigma): conjugate of insulin with 15 kDa oxidised colominic acid
- pH effect (of polysialylation) on in vivo efficiency ([1]; conjugation pH 6.0 versus 7.4): pH 6.0 is better than 7.4
- probability level of the difference against the PBS buffer ([1]; time 30 (unit not given)): ** (**P < 0.01)
- probability level of the difference against the PBS buffer ([1]; time 60 (unit not given)): *** (***P < 0.001)
- probability level of the difference against the PBS buffer ([1]; time 90 (unit not given)): *** (***P < 0.001)
- probability level of the difference against the PBS buffer ([1]; time 120 (unit not given)): ** (**P < 0.01)
- probability level of the difference against the PBS buffer ([1]; time 150 (unit not given)): * (*P < 0.05)

Substance: mPEG(1500)-B1-insulin: Obermeier et al. site-specific PEG-insulin conjugate modified at residue PheB1
- insulin effect on reduction of blood sugar levels [3]: 100%

Substance: PEG-insulin conjugates: Davis et al. conjugates of insulin with cyanuric chloride activated PEG (2000 Da)
- activity (partially active) [4]: about 50%

Substance: insulin [reference compound]
- T-Test probability level of the difference against the Tris buffer, in vivo efficiency ([1]; time 32.0 minutes): *** (*** P < 0.001)
- T-Test probability level of the difference against the Tris buffer, in vivo efficiency ([1]; time 64.5 minutes): *** (*** P < 0.001)
- T-Test probability level of the difference against the Tris buffer, in vivo efficiency ([1]; time 99.4 minutes): *** (*** P < 0.001)

Substance: 21.5 kd CAO-insulin: conjugate of insulin with 21.5 kDa oxidised colominic acid (FIG. 9)
- effect on decreasing blood glucose in mice ([1]; among conjugates of FIG. 9 (10, 15, 21.5 kDa), PBS control): most significant effect on the decreasing blood glucose in mice

Substance: 13 kDa CAO-insulin: N-terminal conjugate of insulin with 13 kDa oxidised colominic acid (polysialic acid)
- isoelectric point (pI) [5]: no fixed isoelectric point
- T-Test probability level of the difference against the Tris buffer, in vivo efficiency ([1]; time 32.0 minutes): ** (** P < 0.01)
- T-Test probability level of the difference against the Tris buffer, in vivo efficiency ([1]; time 64.5 minutes): *** (*** P < 0.001)
- T-Test probability level of the difference against the Tris buffer, in vivo efficiency ([1]; time 99.4 minutes): *** (*** P < 0.001)

Substance: 21 kDa CAO-insulin: conjugate of insulin with 21 kDa oxidised colominic acid
- T-Test probability level of the difference against the Tris buffer, in vivo efficiency ([1]; time 64.5 minutes): *** (*** P < 0.001)
- T-Test probability level of the difference against the Tris buffer, in vivo efficiency ([1]; time 99.4 minutes): *** (*** P < 0.001)
- T-Test probability level of the difference against the Tris buffer, in vivo efficiency ([1]; time 230.2 minutes): * (* P < 0.05)

Substance: 27 kDa CAO-insulin: conjugate of insulin with 27 kDa oxidised colominic acid
- isoelectric point (pI) [5]: no fixed isoelectric point
- T-Test probability level of the difference against the Tris buffer, in vivo efficiency ([1]; time 32.0 minutes): ** (** P < 0.01)
- T-Test probability level of the difference against the Tris buffer, in vivo efficiency ([1]; time 64.5 minutes): *** (*** P < 0.001)
- T-Test probability level of the difference against the Tris buffer, in vivo efficiency ([1]; time 99.4 minutes): ** (** P < 0.01)
- T-Test probability level of the difference against the Tris buffer, in vivo efficiency ([1]; time 230.2 minutes): ** (** P < 0.01)
- T-Test probability level of the difference against the Tris buffer, in vivo efficiency ([1]; time 1354.9 minutes): ** (** P < 0.01)

Substance: PEG(1500)-B1-insulin: Geiger et al./Ehrat et al. PEG-insulin adduct modified at residue PheB1
- stability to liver enzymes versus native insulin [6]: far more stable
